Measurements: the supplement of paper PMC11281043
± gives the standard deviation of the averaged measurements.

Key:
Conditions in all cases: exposure: 6-8 hpf to 5 dpf, scored at 6 dpf
Danio rerio embryo/larva [1] = assay: max % larvae with pigmentation defects across tested concentrations; higher = more toxic
Danio rerio embryo/larva [2] = assay: max % larvae with edema across tested concentrations; higher = more toxic; extreme values may be limits of the assay
Danio rerio embryo/larva [3] = assay: max % larvae with tail defects across tested concentrations; higher = more toxic; extreme values may be limits of the assay
Danio rerio embryo/larva [4] = assay: max % larvae with blood pooling across tested concentrations; higher = more toxic; extreme values may be limits of the assay
Danio rerio embryo/larva [5] = assay: max % larvae generally abnormal across tested concentrations; higher = more toxic; extreme values may be limits of the assay
Danio rerio embryo/larva [6] = assay: max % larvae with spinal defects across tested concentrations; higher = more toxic; extreme values may be limits of the assay
Danio rerio embryo/larva [7] = assay: max % larvae with abnormal position across tested concentrations; higher = more toxic; extreme values may be limits of the assay
Danio rerio embryo/larva [8] = assay: max % larvae with craniofacial defects across tested concentrations; higher = more toxic; extreme values may be limits of the assay
Danio rerio embryo/larva [9] = assay: max % larvae with uninflated swim bladder across tested concentrations; higher = more toxic; extreme values may be limits of the assay

Row | SMILES | max % larvae (Danio rerio embryo/larva [1]) | max % larvae (Danio rerio embryo/larva [2]) | max % larvae (Danio rerio embryo/larva [3]) | max % larvae (Danio rerio embryo/larva [4]) | max % larvae generally abnormal across tested concentrations (Danio rerio embryo/larva [5]) | max % larvae (Danio rerio embryo/larva [6]) | max % larvae (Danio rerio embryo/larva [7]) | max % larvae (Danio rerio embryo/larva [8]) | max % larvae (Danio rerio embryo/larva [9])
1 | O=C(O)C(F)(F)C(F)(F)C(F)(F)C(F)(F)C(F)(F)C(F)(F)C(F)F [8H-Perfluorooctanoic acid] (max tested concentration (log10 uM): 2) | 0% | 0% | 4.17% | 0% | 8.33% | 0% | 0% | 0% | 16.7%
2 | OCCC(F)(F)C(F)(F)C(F)(F)C(F)(F)F [4:2 Fluorotelomer alcohol] (max tested concentration (log10 uM): 2) | 0% | 4.17% | 0% | 0% | 4.17% | 0% | 0% | 0% | 0%
3 | O=C(O)C(F)(F)OC(F)(F)C(F)(F)OC(F)(F)C(F)(F)OC(F)(F)F [Perfluoro-3,6,9-trioxadecanoic acid] (max tested concentration (log10 uM): 2) | 0% | 45% | 30% | 40% | 70% | 20% | 25% | 40% | 100%
4 | COC(=O)C(F)(F)C(F)(F)C(F)(F)C(F)(F)C(F)(F)F [Methyl perfluorohexanoate] (max tested concentration (log10 uM): 2) | 0% | 0% | 0% | 0% | 0% | 0% | 0% | 0% | 0%
5 | O=C(O)C(F)(F)C(F)(F)C(F)(F)C(F)(F)C(F)(F)C(F)(F)C(F)(F)C(F)(F)C(F)(F)C(F)(F)C(F)(F)C(F)(F)C(F)(F)F [Perfluorotetradecanoic acid] (max tested concentration (log10 uM): 1.30103) | 0% | 0% | 0% | 0% | 2.27% | 0% | 0% | 0% | 4.55%
6 | N=C(N)C(F)(F)C(F)(F)C(F)(F)C(F)(F)C(F)(F)C(F)(F)C(F)(F)F [Perfluorooctanamidine] (max tested concentration (log10 uM): 1) | 0% | 4.17% | 0% | 16.7% | 8.33% | 0% | 0% | 0% | 0%
7 | O=S(=O)(O)CCC(F)(F)C(F)(F)C(F)(F)C(F)(F)C(F)(F)C(F)(F)C(F)(F)C(F)(F)F [8:2 Fluorotelomer sulfonic acid] (max tested concentration (log10 uM): 2) | 0% | 0% | 0% | 0% | 0% | 0% | 0% | 0% | 0%
8 | O=C(O)C(F)(F)C(F)(F)C(F)(F)C(F)(F)F [Perfluoropentanoic acid] (max tested concentration (log10 uM): 2) | 0% | 16.7% | 0% | 0% | 16.7% | 0% | 4.17% | 0% | 16.7%
9 | FC(F)(F)C(F)(F)C(F)(F)CI [Heptafluorobutyl iodide] (max tested concentration (log10 uM): 2) | 0% | 0% | 0% | 0% | 0% | 0% | 0% | 0% | 0%
10 | OCC(F)(F)C(F)(F)C(F)(F)C(F)(F)C(F)(F)C(F)F [1H,1H,7H-Dodecafluoro-1-heptanol] (max tested concentration (log10 uM): 2) | 0% | 8.33% | 0% | 0% | 8.33% | 0% | 0% | 0% | 0%
11 | O=S(=O)(O)C(F)(F)C(F)(F)OC(F)(F)C(F)(F)F [Perfluoro-2-ethoxyethanesulfonic acid] (max tested concentration (log10 uM): 2) | 0% | 8.33% | 0% | 0% | 8.33% | 0% | 0% | 0% | 16.7%
12 | CCN(CCO)S(=O)(=O)C(F)(F)C(F)(F)C(F)(F)C(F)(F)C(F)(F)C(F)(F)C(F)(F)C(F)(F)F [N-Ethyl-N-(2-hydroxyethyl)perfluorooctane sulfonamide] (max tested concentration (log10 uM): 2) | 0% | 8.33% | 0% | 0% | 8.33% | 0% | 0% | 0% | 8.33%
13 | O=C(O)CCC(F)(C(F)(F)F)C(F)(F)F [4,4-bis(Trifluoromethyl)-4-fluoropropanoic acid] (max tested concentration (log10 uM): 2) | 0% | 0% | 0% | 0% | 0% | 0% | 0% | 0% | 0%
14 | C=C(C)C(=O)OCCC(F)(F)C(F)(F)C(F)(F)C(F)(F)C(F)(F)C(F)(F)C(F)(F)C(F)(F)F [2-(Perfluorooctyl)ethyl methacrylate] (max tested concentration (log10 uM): 2) | 0% | 0% | 0% | 0% | 0% | 0% | 0% | 0% | 0%
15 | OCC(F)(F)OC(F)(F)C(F)(F)OC(F)(F)C(F)(F)OC(F)(F)CO [1H,1H,11H,11H-Perfluorotetraethylene glycol] (max tested concentration (log10 uM): 1.47712) | 0% | 0% | 0% | 0% | 0% | 0% | 0% | 0% | 0%
16 | NCC(F)(F)C(F)(F)C(F)(F)C(F)(F)C(F)(F)C(F)(F)C(F)(F)F [1H,1H-Perfluorooctylamine] (max tested concentration (log10 uM): 2) | 0% | 22.5 ± 32% | 0% | 0% | 20 ± 28% | 0% | 0% | 15 ± 21% | 20 ± 28%

Row | SMILES | max % larvae (Danio rerio embryo/larva [1]) | max % larvae (Danio rerio embryo/larva [2]) | max % larvae (Danio rerio embryo/larva [3]) | max % larvae (Danio rerio embryo/larva [4]) | max % larvae generally abnormal across tested concentrations (Danio rerio embryo/larva [5]) | max % larvae (Danio rerio embryo/larva [6]) | max % larvae (Danio rerio embryo/larva [7]) | max % larvae (Danio rerio embryo/larva [8]) | max % larvae (Danio rerio embryo/larva [9])
17 | NC(=O)C(F)(F)C(F)(F)C(F)(F)C(F)(F)C(F)(F)C(F)(F)C(F)(F)F [Perfluorooctanamide] (max tested concentration (log10 uM): 2) | 0% | 0% | 0% | 0% | 0% | 0% | 0% | 0% | 0%
18 | O=C(O)C(F)(F)OC(F)(F)C(F)(F)OC(F)(F)F [Perfluoro-3,6-dioxaheptanoic acid] (max tested concentration (log10 uM): 2) | 0% | 4.17% | 0% | 0% | 4.17% | 0% | 0% | 0% | 0%
19 | O=S(=O)(O)C(F)(F)C(F)(F)C(F)(F)C(F)(F)F [Potassium perfluorobutanesulfonate] (max tested concentration (log10 uM): 2) | 0% | 0% | 0% | 0% | 4.17% | 0% | 0% | 0% | 8.33%
20 | C[N+](C)(C)CCCNS(=O)(=O)C(F)(F)C(F)(F)C(F)(F)C(F)(F)C(F)(F)C(F)(F)C(F)(F)C(F)(F)F (max tested concentration (log10 uM): 1.47712) | 0% | 50% | 0% | 0% | 50% | 0% | 12.5% | 50% | 25%
21 | O=C(O)C(F)(F)C(F)(F)F [Perfluoropropanoic acid] (max tested concentration (log10 uM): 2) | 0% | 0% | 0% | 0% | 0% | 0% | 0% | 0% | 0%
22 | O=C(O)C(F)(F)C(F)(F)C(F)(F)C(F)(F)C(F)(F)C(F)(F)C(F)(F)F [Perfluorooctanoic acid] (max tested concentration (log10 uM): 2) | 0% | 16.7% | 4.17% | 0% | 16.7% | 0% | 8.33% | 0% | 16.7%
23 | C=C(C)C(=O)OCCC(F)(F)C(F)(F)C(F)(F)C(F)(F)C(F)(F)C(F)(F)F [2-(Perfluorohexyl)ethyl methacrylate] (max tested concentration (log10 uM): 2) | 0% | 0% | 0% | 0% | 0% | 0% | 0% | 0% | 0%
24 | FC(F)(F)C(F)(F)C(F)(F)C(F)(F)C(F)(F)C(F)(F)I [Perfluoro-1-iodohexane] (max tested concentration (log10 uM): 2) | 0% | 0% | 0% | 0% | 0% | 0% | 0% | 0% | 0%
25 | O=C(O)C(F)(F)C(F)(F)C(F)(F)C(=O)O [Perfluoropentanedioic acid] (max tested concentration (log10 uM): 2) | 0% | 0% | 0% | 0% | 0% | 0% | 0% | 0% | 0%
26 | FC(F)(F)C(F)(C(F)(F)F)C(F)(F)C(F)(F)CC1CO1 (centres undefined) [3-(Perfluoro-3-methylbutyl)-1,2-propenoxide] (max tested concentration (log10 uM): 1.60206) | 0% | 0% | 0% | 0% | 0% | 0% | 0% | 0% | 0%
27 | OCC(F)(F)C(F)(F)C(F)(F)F [3:1 Fluorotelomer alcohol] (max tested concentration (log10 uM): 2) | 0% | 8.33% | 0% | 8.33% | 8.33% | 0% | 0% | 0% | 0%
28 | FC(F)(F)C(F)(F)C(F)(F)C(F)(F)C(F)(F)C(F)(F)CCS [2-(Perfluorohexyl)ethanethiol] (max tested concentration (log10 uM): 1.60206) | 0% | 8.33% | 0% | 0% | 8.33% | 0% | 0% | 0% | 16.7%
29 | NCC(F)(F)C(F)(F)C(F)(F)C(F)(F)C(F)(F)C(F)(F)C(F)(F)C(F)(F)F [1H,1H-Perfluorononylamine] (max tested concentration (log10 uM): 1.60206) | 0% | 50% | 0% | 50% | 75% | 0% | 25% | 50% | 50%
30 | O=P(O)(O)OCCC(F)(F)C(F)(F)C(F)(F)C(F)(F)C(F)(F)C(F)(F)F [6:2 Fluorotelomer phosphate monoester] (max tested concentration (log10 uM): 2) | 0% | 0% | 0% | 0% | 0% | 0% | 0% | 0% | 0%
31 | CO[Si](C)(CCC(F)(F)C(F)(F)C(F)(F)C(F)(F)C(F)(F)C(F)(F)F)OC [Dimethoxymethyl((perfluorohexyl)ethyl)silane] (max tested concentration (log10 uM): 1.60206) | 0% | 0% | 0% | 0% | 0% | 0% | 0% | 0% | 0%
